# Results published in patent publication US10124004B2, “Pyrido[3,4-d]pyrimidine derivative and pharmaceutically acceptable salt thereof” (Teijin Pharma Limited, priority 2015, dated 2018).
# How the values were obtained:
# CDK4/cyclin D3 = target: T1, CDK4/cyclin D3 (Homo sapiens, UniProt P11802); assay: Human CDK4/cyclin D3 inhibitory activity (QS S Assist CDK4/Cyclin D3_FP Kit, IMAP fluorescence polarization); format: biochemical; settings: Human CDK4/cyclin D3 inhibitory activity; read-out: CDK4 Activity symbol
# T1 construct: purchased Carna Biosciences, Inc. QS S Assist CDK4/Cyclin D3_FP Kit
# Procedure, shortened: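 IMAP fluorescence-polarization kinase assay with kit ATP/substrate/metal mix and 12.5 to 25 ng/well enzyme in 20 mM HEPES pH 7.4, 0.01% Tween20, 2 mM DTT. Reaction ran 45 min at room temperature, then binding reagent was added for 30 min in the dark. IC50 was taken from dose-response fits of percent inhibition.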
# CDK2/cyclin A2 = target: T2, CDK2/cyclin A2 (Homo sapiens, UniProt P24941); assay: Human CDK2/cyclin A2 inhibitory activity (QS S Assist CDK2/Cyclin A2_FP Kit, IMAP fluorescence polarization); format: biochemical; settings: Human CDK2/cyclin A2 inhibitory activity; read-out: CDK2 Activity symbol
# T2 construct: purchased Carna Biosciences, Inc. QS S Assist CDK2/Cyclin A2_FP Kit
# Procedure, shortened: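 Kinase activity read as fluorescence polarization (485/535 nm) after phosphorylated fluorescent substrate binds IMAP reagent (30 min, RT, dark). Enzyme (2.5 ng/well) reacted 60 min at RT with ATP/substrate/metal in HEPES pH 7.4 buffer with Tween 20 and DTT; no-enzyme wells define 0% activity; IC50 by curve fit.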
# T1 sequence (P11802 whole entry): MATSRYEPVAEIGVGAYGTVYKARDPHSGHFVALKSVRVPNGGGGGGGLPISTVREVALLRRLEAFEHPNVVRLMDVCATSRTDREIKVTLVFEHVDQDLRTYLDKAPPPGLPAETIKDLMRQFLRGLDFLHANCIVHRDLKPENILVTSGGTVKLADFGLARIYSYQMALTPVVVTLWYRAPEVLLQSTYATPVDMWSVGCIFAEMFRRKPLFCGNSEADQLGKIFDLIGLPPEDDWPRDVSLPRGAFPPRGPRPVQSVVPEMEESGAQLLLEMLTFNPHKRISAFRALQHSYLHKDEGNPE
# T1 sequence (P30281 whole entry partner): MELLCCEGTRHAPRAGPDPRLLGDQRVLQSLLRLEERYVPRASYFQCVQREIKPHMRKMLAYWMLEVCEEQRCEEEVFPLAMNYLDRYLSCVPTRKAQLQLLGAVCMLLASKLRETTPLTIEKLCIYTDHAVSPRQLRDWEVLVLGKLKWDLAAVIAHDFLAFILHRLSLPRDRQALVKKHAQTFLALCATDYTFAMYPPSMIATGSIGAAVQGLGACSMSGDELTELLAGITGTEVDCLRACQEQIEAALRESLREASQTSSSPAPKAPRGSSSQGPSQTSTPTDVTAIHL
SMILES,IC50 (CDK4/cyclin D3),IC50 (CDK2/cyclin A2)
C[C@@H](O)c1cc2cnc(Nc3ccc(N4CCN(C=O)CC4=O)cn3)nc2c(N[C@H]2CCCOC2)n1 [Compound 352],< 0.01 µM,≥ 0.1 µM
C[C@@H](O)c1cc2cnc(Nc3ccc(N4CCN(C=O)CC4=O)cn3)nc2c(N[C@@H]2CCOC2)n1 [Compound 353],< 0.01 µM,≥ 0.1 µM
C[C@@H](O)c1cc2cnc(Nc3ccc(N4CCN(C=O)CC4=O)cn3)nc2c(N[C@H]2CCOC2)n1 [Compound 354],0.01 to 0.1 µM,≥ 0.1 µM
C[C@@H](O)c1cc2cnc(Nc3ccc(N4CCN(C=O)CC4=O)cn3)nc2c(NC2CCOCC2)n1 [Compound 355],< 0.01 µM,≥ 0.1 µM
CO[C@H](C)c1cc2cnc(Nc3ccc(N4CCNCC4)nn3)nc2c(NCC2CCOCC2)n1 [Compound 358],< 0.01 µM,≥ 0.1 µM
CO[C@H](C)c1cc2cnc(Nc3ccc(CN4CCNCC4)cn3)nc2c(NCC2CCOCC2)n1 [Compound 360],< 0.01 µM,≥ 0.1 µM
FC(F)c1cc2cnc(Nc3ccc(CN4CCNCC4)cn3)nc2c(NC2CCOCC2)n1 [Compound 364],< 0.01 µM,0.01 to 0.1 µM
FC(F)c1cc2cnc(Nc3ccc(N4CCNCC4)nn3)nc2c(NC2CCOCC2)n1 [Compound 365],< 0.01 µM,≥ 0.1 µM
CN(C)CCOc1ccc(Nc2ncc3cc(C(F)F)nc(NC4CCCOC4)c3n2)nc1 (centres unmarked) [Compound 366],< 0.01 µM,≥ 0.1 µM
C[C@@H](O)c1nc(N[C@H]2CCCOC2)c2nc(Nc3ccc(N4CCNCC4)nn3)ncc2c1Cl [Compound 367],< 0.01 µM,≥ 0.1 µM
C[C@@H](O)c1nc(N[C@H]2CC[C@H](O)CC2)c2nc(Nc3ccc(N4CCNCC4)nn3)ncc2c1Cl [Compound 368],< 0.01 µM,≥ 0.1 µM
C[C@@H](O)c1nc(N[C@H]2CCCOC2)c2nc(Nc3ccc(CN4CCNCC4)cn3)ncc2c1Cl [Compound 369],< 0.01 µM,≥ 0.1 µM
C[C@@H](O)c1nc(N[C@H]2CC[C@H](O)CC2)c2nc(Nc3ccc(CN4CCNCC4)cn3)ncc2c1Cl [Compound 370],< 0.01 µM,≥ 0.1 µM
CO[C@H](C)c1cc2cnc(Nc3ccc(N4CCNC[C@@H]4C)nn3)nc2c(NC(C)C)n1 [Compound 371],< 0.01 µM,≥ 0.1 µM
CO[C@H](C)c1cc2cnc(Nc3ccc(N4CCNC[C@H]4C)nn3)nc2c(NC(C)C)n1 [Compound 372],< 0.01 µM,≥ 0.1 µM
COCC(C)(C)Nc1nc([C@@H](C)O)cc2cnc(Nc3cnc(N4CCNCC4)cn3)nc12 [Compound 373],< 0.01 µM,≥ 0.1 µM
CO[C@H](C)c1cc2cnc(Nc3ccc(N4CCNC5(CC5)C4)nn3)nc2c(N[C@H]2CCCOC2)n1 [Compound 376],< 0.01 µM,≥ 0.1 µM
CO[C@H](C)c1cc2cnc(Nc3ccc(CN4CCNC5(CC5)C4)cn3)nc2c(N[C@H]2CCCOC2)n1 [Compound 378],< 0.01 µM,≥ 0.1 µM
CC(C)Nc1nc([C@@H](C)O)cc2cnc(Nc3ccc(N4CCNC5(CC5)C4)nn3)nc12 [Compound 379],< 0.01 µM,≥ 0.1 µM
FC(F)c1cc2cnc(Nc3ccc(CN4CCNCC4)cn3)nc2c(N[C@H]2CCCOC2)n1 [Compound 380],< 0.01 µM,≥ 0.1 µM

SMILES,IC50 (CDK4/cyclin D3),IC50 (CDK2/cyclin A2)
FC(F)c1cc2cnc(Nc3ccc(N4CCNCC4)nn3)nc2c(N[C@H]2CCCOC2)n1 [Compound 381],< 0.01 µM,≥ 0.1 µM
CN(C)CCOc1ccc(Nc2ncc3cc(C(F)F)nc(N[C@H]4CCCOC4)c3n2)nc1 [Compound 382],< 0.01 µM,≥ 0.1 µM
O=C(O)[C@H]1CC[C@H](Nc2nc(C(F)F)cc3cnc(Nc4ccc(CN5CCNCC5)cn4)nc23)CC1 [Compound 383],0.01 to 0.1 µM,≥ 0.1 µM
O=C(O)[C@H]1CC[C@H](Nc2nc(C(F)F)cc3cnc(Nc4ccc(N5CCNCC5)nn4)nc23)CC1 [Compound 384],0.01 to 0.1 µM,≥ 0.1 µM
CN(C)CCOc1ccc(Nc2ncc3cc(C(F)F)nc(N[C@H]4CC[C@H](C(=O)O)CC4)c3n2)nc1 [Compound 385],< 0.01 µM,≥ 0.1 µM
O[C@H]1CC[C@H](Nc2nc(C(F)F)cc3cnc(Nc4ccc(CN5CCNCC5)cn4)nc23)CC1 [Compound 386],< 0.01 µM,≥ 0.1 µM
O[C@H]1CC[C@H](Nc2nc(C(F)F)cc3cnc(Nc4ccc(N5CCNCC5)nn4)nc23)CC1 [Compound 387],< 0.01 µM,0.01 to 0.1 µM
CN(C)CCOc1ccc(Nc2ncc3cc(C(F)F)nc(N[C@H]4CC[C@H](O)CC4)c3n2)nc1 [Compound 388],< 0.01 µM,≥ 0.1 µM
CO[C@H](C)c1cc2cnc(Nc3ccc(C(=O)N4CCNCC4)cn3)nc2c(NC(C)C)n1 [Compound 389],< 0.01 µM,0.01 to 0.1 µM
COC1CCC(Nc2nc(C(C)OC)cc3cnc(Nc4ccc(CN5CCNCC5)cn4)nc23)CC1 (centres unmarked) [Compound 395],< 0.01 µM,≥ 0.1 µM
COC(C)c1cc2cnc(Nc3ccc(CN4CCNCC4)cn3)nc2c(NCC2CCCOC2)n1 (centres unmarked) [Compound 400],< 0.01 µM,≥ 0.1 µM
COC(C)c1cc2cnc(Nc3ccc(CN4CCNCC4)cn3)nc2c(NC2CCC(C)(C)OC2)n1 (centres unmarked) [Compound 432],< 0.01 µM,≥ 0.1 µM
COC(C)c1cc2cnc(Nc3ccc(CN4CCNCC4)cn3)nc2c(SC(C)C)n1 (centres unmarked) [Compound 456],< 0.01 µM,≥ 0.1 µM
CO[C@H](C)c1cc2cnc(Nc3ccc(N4CCN[C@@H](C)C4=O)cn3)nc2c(NC(C)C)n1 [Compound 463],< 0.01 µM,≥ 0.1 µM
CO[C@H](C)c1cc2cnc(Nc3ccc(N4CC[C@@H](N)[C@@H](F)C4)cn3)nc2c(NC(C)C)n1 [Compound 466],< 0.01 µM,≥ 0.1 µM
CO[C@H](C)c1cc2cnc(Nc3ccc(N4CC[C@H](N)[C@@H](F)C4)cn3)nc2c(NC(C)C)n1 [Compound 467],< 0.01 µM,≥ 0.1 µM
CC(C)Nc1nc([C@@H](C)O)cc2cnc(Nc3ccc(OCCN(C)C)nn3)nc12 [Compound 474],< 0.01 µM,≥ 0.1 µM
CC(C)Nc1nc([C@@H](C)O)cc2cnc(Nc3ccc(N4CCC(N(C)C)CC4)nn3)nc12 [Compound 491],< 0.01 µM,≥ 0.1 µM
CO[C@H](C)c1cc2cnc(Nc3ccc(N4CCCNCC4=O)cn3)nc2c(NC(C)C)n1 [Compound 492],< 0.01 µM,0.01 to 0.1 µM
CNC1CCN(c2ccc(Nc3ncc4cc([C@@H](C)O)nc(NC(C)C)c4n3)nn2)CC1 [Compound 497],< 0.01 µM,≥ 0.1 µM

SMILES,IC50 (CDK4/cyclin D3),IC50 (CDK2/cyclin A2)
CO[C@H](C)c1cc2cnc(Nc3ccc(N4CCNCCC4=O)cn3)nc2c(NC(C)C)n1 [Compound 499],< 0.01 µM,0.01 to 0.1 µM
COC(C)c1cc2cnc(Nc3ccc(N4CC5CCC(C4)N5)cn3)nc2c(NC(C)C)n1 (centres unmarked) [Compound 501],< 0.01 µM,≥ 0.1 µM
CC(C)Nc1nc([C@@H](C)O)cc2cnc(Nc3ccc(N4CCN[C@@H](C)C4=O)cn3)nc12 [Compound 507],< 0.01 µM,≥ 0.1 µM
CO[C@H](C)c1cc2cnc(Nc3ccc(CN4CCN(CCO)CC4)cn3)nc2c(NC(C)C)n1 [Compound 508],< 0.01 µM,≥ 0.1 µM
CNCC(F)COc1ccc(Nc2ncc3cc([C@@H](C)OC)nc(NC(C)C)c3n2)nc1 (some centres unmarked) [Compound 509],< 0.01 µM,≥ 0.1 µM
CC(C)Nc1nc([C@@H](C)O)cc2cnc(Nc3ccc(N4CCN(CCO)CC4)nn3)nc12 [Compound 510],< 0.01 µM,≥ 0.1 µM
CO[C@H](C)c1cc2cnc(Nc3ccc(N4CC5(CNC5)CC4=O)cn3)nc2c(NC(C)C)n1 [Compound 511],< 0.01 µM,0.01 to 0.1 µM
CNC1CC2(C1)CN(c1ccc(Nc3ncc4cc([C@@H](C)OC)nc(NC(C)C)c4n3)nc1)C2 [Compound 512],< 0.01 µM,≥ 0.1 µM
CC(C)Nc1nc([C@@H](C)O)cc2cnc(Nc3ccc(CC(=O)N4CCNCC4)cn3)nc12 [Compound 519],< 0.01 µM,≥ 0.1 µM
CC(C)Nc1nc([C@@H](C)O)cc2cnc(Nc3ccc(N4CCCNCC4=O)cn3)nc12 [Compound 521],< 0.01 µM,0.01 to 0.1 µM
CC(C)Nc1nc([C@@H](C)O)cc2cnc(Nc3ccc(N4CCNCCC4=O)cn3)nc12 [Compound 522],< 0.01 µM,0.01 to 0.1 µM
CC(C)Nc1nc([C@@H](C)O)cc2cnc(Nc3ccc(N4CC5(CC(O)C5)C4)nn3)nc12 [Compound 524],< 0.01 µM,≥ 0.1 µM
CNCCCOc1ccc(Nc2ncc3cc([C@@H](C)OC)nc(NC(C)C)c3n2)nc1 [Compound 526],< 0.01 µM,≥ 0.1 µM
CNCCOc1ccc(Nc2ncc3cc([C@@H](C)O)nc(NC(C)C)c3n2)nc1 [Compound 529],< 0.01 µM,≥ 0.1 µM
CC(C)Nc1nc([C@@H](C)O)cc2cnc(Nc3ccc(N4CCN(C)CC4)nn3)nc12 [Compound 532],< 0.01 µM,≥ 0.1 µM
CC(C)Nc1nc([C@@H](C)O)cc2cnc(Nc3ccc(CN4CCNC5(CC5)C4)cn3)nc12 [Compound 537],< 0.01 µM,≥ 0.1 µM
CC(C)Nc1nc([C@@H](C)O)cc2cnc(Nc3ccc(CN4CCN(C)CC4)cn3)nc12 [Compound 548],< 0.01 µM,≥ 0.1 µM
CC(C)Nc1nc([C@@H](C)O)cc2cnc(Nc3ccc(CN4CCC(C(C)(C)O)CC4)cn3)nc12 [Compound 549],< 0.01 µM,≥ 0.1 µM
